# Measurements: patent US12152030B2 (NOVOSTAR PHARMACEUTICALS, LTD., priority 2019, dated 2024)
# Counter-ions that a name gives are not always drawn.
# Assays:
# Phosphorylated eIF4E = assay: Intracellular peIF4E signaling assay; format: cell-based; conditions: 2 h; two hours incubation at 37° C.; read-out: peIF4E signaling cell assay IC50
# Protocol: Phosphorylated eIF4E was determined using CisBio peIF4E assay kit (CisBio, catalog number 64EF4PEG). The cells were plated in a 96-well cell culture plate in a volume of 90 μL, and the number of cells per well was 5*10^4. The compounds (10×) were subjected to 3-fold serial dilution, added to the cell plate in a volume of 10 μL with the final DMSO concentration being 1%, and incubated at 37° C. for two hours. The cell plate was centrifuged at 300 g for 5 minutes, and the cell supernatant was carefully removed. The cell plate was immediately added with 50 μL of cell lysis buffer […] and incubated at 25° C. with shaking for at least 30 minutes. After homogenization by pipetting, 16 μL of cell lysate was transferred from the 96-well cell culture plate to a 384-well small-volume microwell plate. According to the kit instruction, an antibody mixture solution was prepared with a detection buffer, and was added in a volume of 4 μL to the 384-well small-volume microwell plate containing the cell lysate. The plate was covered with a plate sealer, incubated overnight at 25° C., and was read for fluorescence emission at two different wavelengths (665 nm and 615 nm) on the EnVision microplate reader counter. The emission ratio was imported into a GraphPadPrism software to fit the compound concentration (IC50) required for 50% inhibition of enzyme activity.
# In this respect, IC50 values which are less than 0.05 μM were marked as “+++”, which are from 0.05 to 1.0 μM were marked as “++”, and which are greater than 1.0 and up to 100 μM were marked as “+”, and NA meant “not detected”.
# MNK2 = MNK2 (Homo sapiens, UniProt Q9HBH9); assay: MNK biological enzyme assay (HTRF kinase assay), MNK2; format: biochemical; parameters: purchased ThermoFisher PV5607; conditions: 1 ng/μl MNK2, 1 μM STK1 peptide, 100 μM ATP
# Chain of MNK2 (Q9HBH9 whole entry): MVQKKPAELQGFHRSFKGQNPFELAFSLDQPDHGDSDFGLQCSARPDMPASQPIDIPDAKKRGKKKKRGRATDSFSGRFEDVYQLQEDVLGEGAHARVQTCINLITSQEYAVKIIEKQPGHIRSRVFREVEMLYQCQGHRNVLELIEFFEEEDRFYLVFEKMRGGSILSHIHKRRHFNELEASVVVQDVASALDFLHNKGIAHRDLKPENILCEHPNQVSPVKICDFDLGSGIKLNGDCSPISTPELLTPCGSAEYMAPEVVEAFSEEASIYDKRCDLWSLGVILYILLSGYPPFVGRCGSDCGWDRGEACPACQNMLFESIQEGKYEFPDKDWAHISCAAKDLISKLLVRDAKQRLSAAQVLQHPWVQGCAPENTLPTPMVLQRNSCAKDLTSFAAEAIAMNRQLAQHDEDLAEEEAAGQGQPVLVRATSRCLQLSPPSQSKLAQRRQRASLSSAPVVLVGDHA
# Protocol: (§1) A HTRF kinase assay kit (Cisbio, catalog number 62ST1PEB) was used to determine the MNK inhibitory activity of the compounds. All kinase reactions were performed in the reaction buffer (provided in the kit). The final MNK1 reaction involved 3 ng/ul recombinant MNK1 (ThermoFisher, PV6023), 1 μM MNK substrate peptide STK1 (provided in the kit), 100 μM ATP, and different concentrations of the inhibitory compounds of interest. The final MNK2 reaction involved 1 ng/μl recombinant MNK2 (ThermoFisher, PV5607), 1 μM MNK substrate peptide STK1 (provided in the kit), 100 μM ATP, and different concentrations of the inhibitory compounds of interest. The final DMSO concentration in each of the reactions was 1%.
# (§2) The kinase reaction was performed in a final volume of 10 μl in a 384-well white flat-bottomed polystyrene plate. The MNK1/2 enzyme was pre-incubated with the compound and substrate peptide for 5 minutes, and then ATP was added thereto. After addition of ATP, the kinase reaction was incubated at 25° C. for 120 minutes or 60 minutes. The reaction was subsequently terminated by adding 5 μl of EU3+ substrate antibody detection reagent and 5 μl of XL665 detection reagent, and incubating for another 60 minutes. The luminescent signal was detected with an EnVision microplate reader counter (Perkin Elmer), and the signal from 10-point dilution series of the compounds was used to calculate the compound concentration (IC50) required to achieve 50% inhibition of enzyme activity.
# (§3) In this respect, IC50 values which are less than 0.01 μM were marked as “+++”, which are from 0.01 to 0.1 μM were marked as “++”, and which are greater than 0.1 and up to 10.0 μM were marked as “+”, and NA meant “not detected”.
# MNK1 = MNK1 (Homo sapiens, UniProt Q9BUB5); assay: MNK biological enzyme assay (HTRF kinase assay), MNK1; format: biochemical; parameters: purchased ThermoFisher PV6023; conditions: 3 ng/ul MNK1, 1 μM STK1 peptide, 100 μM ATP
# Chain of MNK1 (Q9BUB5 whole entry): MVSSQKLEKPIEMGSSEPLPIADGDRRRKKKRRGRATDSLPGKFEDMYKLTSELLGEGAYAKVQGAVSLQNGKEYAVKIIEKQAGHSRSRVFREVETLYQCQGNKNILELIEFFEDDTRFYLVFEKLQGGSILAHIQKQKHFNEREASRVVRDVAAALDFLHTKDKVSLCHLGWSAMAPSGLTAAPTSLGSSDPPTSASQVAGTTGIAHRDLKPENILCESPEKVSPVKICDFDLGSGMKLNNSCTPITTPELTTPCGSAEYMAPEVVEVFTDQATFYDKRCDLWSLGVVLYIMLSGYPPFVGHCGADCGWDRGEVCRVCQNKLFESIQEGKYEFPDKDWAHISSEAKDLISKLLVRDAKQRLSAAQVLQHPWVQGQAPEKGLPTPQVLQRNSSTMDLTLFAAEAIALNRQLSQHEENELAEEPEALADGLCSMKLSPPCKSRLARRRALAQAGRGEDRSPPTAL
# Protocol: as §1, §2, §3
SMILES,IC50 (Phosphorylated eIF4E),IC50 (MNK2),IC50 (MNK1)
"Cc1c2n(c(=O)c3[nH]c4cc(N)ncc4c(=O)c13)C1(CCN(C)CC1)NC2=O [Compound 17, 8-amino-1′,12-dimethyl-2H-spiro[imidazo[1′,5′:1,6]pyrido[3,4-B][1,6]naphthyridine-3,4′-piperidine]-1,5,11(6H)-trione]",1000 to 100000 nM,–,–
"Cc1cc2[nH]c3c(=O)n4c(c(C)c3c(=O)c2cn1)C(=O)NC41CCCCC1 [Compound 11, 8′,12′-dimethyl-1′H-spiro[cyclohexane-1,3′-imidazo[1′,5′:1,6]pyrido[3,4-b][1,6]naphthyridine]-1′,5′,11′(2′H,6′H)-trione]",1000 to 100000 nM,–,–
"Cc1c2n(c(=O)c3[nH]c4cc(N)ncc4c(=O)c13)C(C)(c1ccccc1)NC2=O (centres unmarked) [Compound 7, 8-amino-3,12-dimethyl-3-phenyl-2,3-dihydroimidazo[1′,5′:1,6]pyrido[3,4-B][1,6]naphthyridine-1,5,11(6H)-trione]",1000 to 100000 nM,10 to 100 nM,10 to 100 nM
"Cc1c2c(c(=O)n3c1C(=O)NC3(C)c1ccccc1)Nc1cc(N)ncc1C2 (centres unmarked) [Compound 8, 8-amino-3,12-dimethyl-3-phenyl-2,3,6,11-tetrahydroimidazo[l′,5′:1,6]pyrido[3,4-b][1,6]naphthyridine-1,5-dione, hydrochloride]",50 to 1000 nM,–,10 to 100 nM
"Cc1c2c(c(=O)n3c1C(=O)NC31CCN(C)CC1)Nc1cc(N)ncc1C2 [Compound 18, 8-amino-1′,12-dimethyl-6,11-dihydro-2H-spiro[imidazo[1′,5′:1,6]pyrido[3,4-b][1,6]naphthyridine-3,4′-piperidine]-1,5-dione]",50 to 1000 nM,–,–
"Cc1cc2c(cn1)Cc1c(C)c3n(c(=O)c1N2)C1(CCCCC1)NC3=O [Compound 12, 8,12-dimethyl-6,11-dihydro-1H-spiro[cyclohexane-1,3-imidazo[1,5:1,6]pyrido[3,4-b][1,6]naphthyridine]-1,5(2H)-dione hydrochloride]",50 to 1000 nM,–,–
"Cc1c2c(c(=O)n3c1C(=O)NC3(C)c1cccc(Cl)c1)Nc1cc(N)ncc1C2 (centres unmarked) [Compound 14, 8-amino-3-(3-chlorophenyl)-3,12-dimethyl-2,3,6,11-tetrahydroimidazole[1′,5′:1,6]pyrido[3,4-b][1,6]naphthyridine-1,5-dione hydrochloride]",50 to 1000 nM,–,–
"C=CC1(CCO)NC(=O)c2c(C)c3c(=O)c4cnc(N)cc4[nH]c3c(=O)n21 (centres unmarked) [Compound 19, 8-amino-3-(2-hydroxyethyl)-12-methyl-3-ethenyl-2,3-dihydroimidazo[1′,5′:1,6]pyrido[3,4-b][1,6]naphthyridine-1,5,11(6H)-trione]",1000 to 100000 nM,–,–
Cc1c2n(c(=O)c3[nH]c4cc(N)ncc4c(=O)c13)C(C)(C)NC2=O [Compound 3],50 to 1000 nM,10 to 100 nM,10 to 100 nM
"Cc1c2c(c(=O)n3c1C(=O)NC3(C)c1cccc(F)c1)Nc1cc(N)ncc1C2 (centres unmarked) [Compound 10, hydrochloride]",50 to 1000 nM,10 to 100 nM,10 to 100 nM

# Other lines, results leading:
IC50 (Phosphorylated eIF4E),IC50 (MNK2),IC50 (MNK1),SMILES
50 to 1000 nM,10 to 100 nM,10 to 100 nM,"Cc1c2c(c(=O)n3c1C(=O)NC3(C)C)Nc1cc(N)ncc1C2 [Compound 4, 8-amino-3,3,12-trimethyl-2,3,6,11-tetrahydroimidazo[1,5′:1.6]pyrido[3,4-b][1,6]naphthyridine derivative-1,5-dione hydrochloride]"
< 50 nM,< 10 nM,< 10 nM,"Cc1c2c(c(=O)n3c1C(=O)NC31CCCCC1)Nc1cc(NC(=O)OC(C)(C)C)ncc1C2 [Compound 23, Tert-Butyl (12-methyl-1,5-dioxo-1,5,6,11-tetrahydro-2H-spiro[cyclohexane-1,3-imidazole[1,5:1,6]pyrido[3,4b][1,6]naphthalene]-8-yl)aminoformate]"
50 to 1000 nM,–,10 to 100 nM,"Cc1c2n(c(=O)c3[nH]c4cc(N)ncc4c(=O)c13)C(C)(c1cccc(F)c1)NC2=O (centres unmarked) [Compound 9, 8-amino-3-(3-fluorophenyl)-3,12-dimethyl-2,3-dihydroimidazo[1′,5′:1,6]pyrido[3,4-b][1,6]naphthopyridin-1,5,11(6H)-trione]"
50 to 1000 nM,10 to 100 nM,10 to 100 nM,"Cc1c2n(c(=O)c3[nH]c4cc(N)ncc4c(=O)c13)C(C)(c1cccc(Cl)c1)NC2=O (centres unmarked) [Compound 13, 8-amino-3-(3-chlorophenyl)-3,12-dimethyl-2,3-dihydroimidazole[1′,5′:1,6]pyrido[3,4-b][1,6]naphthopyridin-1,5,11(6H)-trione]"
< 50 nM,< 10 nM,10 to 100 nM,"Cc1c2c(c(=O)n3c1C(=O)NC31CCCC1)Nc1cc(N)ncc1C2 [Compound 6, 8′-amino-12′-methyl-6′,11′-dihydro-2′H-spiro[cyclopentane-1,3′-imidazo[1′,5′:1,6]pyrido[3,4-b][1,6]naphthyridine]-1′,5′-dione]"
< 50 nM,< 10 nM,10 to 100 nM,"Cc1c2c(c(=O)n3c1C(=O)NC31CCCCC1)Nc1ccncc1C2 [Compound 16, 12-methyl-6,11-dihydro-1H-spiro[cyclohexane-1,3-imidazo[1,5:1,6]pyrido[3,4-b][1,6]naphthyridine]-1,5(2H)-dione hydrochloride]"
< 50 nM,< 10 nM,10 to 100 nM,"Cl.[2H]C1([2H])c2cnc(N)cc2Nc2c1c(C)c1n(c2=O)C2(CCCCC2)NC1=O [Compound 20, 8′-amino-12′-methyl-6′,11′-dihydro-2′H-spiro[cyclohexane-1,3′-imidazo[1′,5′:1,6]pyrido[3,4-b][1,6]naphthyridine]-1′,5′-dione-11′,11′-d2 hydrochloride]"
50 to 1000 nM,–,–,"Cc1c2n(c(=O)c3[nH]c4ccncc4c(=O)c13)C1(CCCCC1)NC2=O [Compound 15, 12′-methyl-1′H-spiro[cyclohexane-1,3′-imidazo[1′,5′:1,6]pyrido[3,4-b][1,6]naphthyridine]-1′,5′,11′(2′H,6′H)-trione]"
< 50 nM,< 10 nM,< 10 nM,"Cc1c2c(c(=O)n3c1C(=O)NC31CCCCC1)Nc1cc(NC(=O)C(C)C)ncc1C2 [Compound 24, N-(12methyl-1,5-dioxo-1,5,6,11-tetrahydro-2H-spiro[cyclohexane-1,3-imidazole[1,5:1,6]pyrido[3,4b][1,6]naphthyridine]-8-yl)isobutyramide]"
< 50 nM,< 10 nM,10 to 100 nM,CCC(=O)Nc1cc2c(cn1)Cc1c(C)c3n(c(=O)c1N2)C1(CCCCC1)NC3=O [Compound 25]
< 50 nM,10 to 100 nM,10 to 100 nM,"Cc1c2n(c(=O)c3[nH]c4cc(N)ncc4c(=O)c13)C1(CCCCC1)NC2=O [Compound 1, 8′-amino-12′-methyl-2′H-spiro[cyclohexane-1,3′-imidazo[1′,5′:1,6]pyrido[3,4-b][1,6]naphthyridine]-1′,5′,11′(6′H)-trione]"
< 50 nM,< 10 nM,10 to 100 nM,Cc1c2c(c(=O)n3c1C(=O)NC31CCCCC1)Nc1cc(NC(=O)C3CCC3)ncc1C2 [Compound 27]
< 50 nM,10 to 100 nM,10 to 100 nM,"CNc1cc2c(cn1)Cc1c(C)c3n(c(=O)c1N2)C1(CCCCC1)NC3=O [Compound 22, 12′-methyl-8′-(methylamino)-6′,11′-dihydro-1′H-spiro[cyclohexane-1,3′-imidazo[1′,5′:1,6]pyrido[3,4-b][1,6]naphthopyridine]-1′,5′(2′H)-dione hydrochloride]"
< 50 nM,< 10 nM,< 10 nM,"Cc1c2n(c(=O)c3[nH]c4cc(N)ncc4c(=O)c13)C1(CCCC1)NC2=O [Compound 5, 8-amino-12-methyl-2H-spiro[cyclopentane-1,3-imidazo[1,5:1,6]pyridine[3,4-b][1,6]naphthyridine]-1,5,11(6H)-trione]"
